According to US10543196B2, “Oral dosage forms of bendamustine” (priority 2008, dated 2020):
Structures can show the parent of a compound that is named as a salt.

Columns and labels:
[1] = B6D2F1-mice; cited from earlier work
[2] = patients, oral doses of 250-350 mg, cited from earlier work
[3] = Solubility of bendamustine hydrochloride; assay type: physicochemical
From the text: Therefore it is not surprising that the oral bendamustine compositions, as investigated by Preiss et al. and Weber gave rise to relatively poor bioavailability results and a large inter-individual variability.

[4] = Stability of an aqueous solution of bendamustine versus pH; assay type: physicochemical; conditions: pH>5

For `Cn1c(CCCC(=O)O)nc2cc(N(CCCl)CCCl)ccc21` [bendamustine hydrochloride], the “Bioavailability (absorption from the gastro-intestinal tract)” value [1] is listed as “about 40%”, the “Time at which maximal plasma levels were detectable after oral administration” value ([2]; capsules of 25 mg) is listed as at most 1 h and the “Solubility in a range of organic solvents” value [3] is listed as “slightly or very slightly soluble”. For the same compound, the “Solubility in ethanol and methanol” value [3] was “good solubility” and the Solubility in water ([3]; pH of 2.0) was “sparingly soluble”.
For `Cn1c(CCCC(=O)O)nc2cc(N(CCCl)CCCl)ccc21` [bendamustine, 4-[5-[bis(2-chloroethyl)amino]-1-methylbenzimidazo-2-yl]butanoic acid], the “Oral bioavailability, range” value ([2]; capsules) is given as 25-94% and the “Hydrolytic decomposition in aqueous solution” value [4] is given as “the decomposition proceeds rapidly”.
